How the values were obtained:
Format in all cases: cell-based
[1] = test system: HCC1937; assay: CCK-8 tumor cell proliferation, HCC1937; settings: Homo sapiens, HCC1937 cells, 72 hours
Protocol: (§1) Tumor cells (see Table 2 to Table 5) were inoculated in 96-well plates in complete culture medium (2000-3000 cells/well). After overnight incubation, the compounds with different concentrations (0.000508 μM-10 μM) were used to treat the cells separately for 72 hours. CCK-8 (Cell Counting Kit 8, Dojindo Laboratories, Kumamoto, Japan) experiment was used to evaluate cell proliferation. GraphPad Prism 5.0 software (La Jolla, CA) was used to calculate the half-maximal inhibitory concentration (IC50) values by fitting the concentration response curve. Each IC50 value was represented as an average value±SD.

[2] = test system: H1299; assay: CCK-8 tumor cell proliferation, H1299; settings: Homo sapiens, NCI-H1299, H1299 cells, 72 hours
Method in brief: (§2)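 Steps: plate 2000-3000 cells/well in complete medium; incubate overnight; add compound, 0.000508 μM-10 μM, 72 h; assess proliferation with CCK-8; fit curves for IC50, expressed as mean±SD.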

[3] = test system: Huh7; assay: CCK-8 tumor cell proliferation, Huh7; settings: Homo sapiens, Huh-7, Huh7 cells, 72 hours
Protocol: as §1

[4] = test system: PC-9; assay: CCK-8 tumor cell proliferation, PC-9; settings: Homo sapiens, PC-9 cells, 72 hours
Method in brief: as §2

[5] = target: T1, AKT2 (Homo sapiens, UniProt P31751); assay: Western Blot, degradation of AKT2 protein in H1975-OR cells; settings: 1000 nM, 24 hours, maximum degradation rate
T1 construct: AKT1, AKT2, and AKT3 proteins in H1975-OR cells; endogenous in cells; host or cells: H1975-OR (osimertinib-resistant H1975)
Method in brief: (§3)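 H1975-OR cells are Osimertinib-resistant H1975, adapted stepwise from 50 nM to 3 μM Osimertinib. Cells were treated with compound for 24 h, lysed, and immunoblotted with ECL detection. Band grayscale density was quantified.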

[6] = test system: MDA-MB-231; assay: CCK-8 tumor cell proliferation, MDA-MB-231; settings: Homo sapiens, MDA-MB-231 cells, 72 hours
Protocol: as §1

[7] = test system: A431; assay: CCK-8 tumor cell proliferation, A431; settings: Homo sapiens, A-431, A431 cells, 72 hours
Method in brief: as §2

[8] = test system: H1975OR; assay: CCK-8 tumor cell proliferation, H1975OR; settings: H1975OR cells (Osimertinib resistant), 72 hours
Method in brief: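 Osimertinib-resistant H1975 cells, selected by raising Osimertinib stepwise from 50 nM to 3 μM, were treated for 72 h with compound at 0.000508–10 μM. Proliferation was read by CCK-8, and IC50 came from fitting the concentration–response curve, given as mean ± SD.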

[9] = target: T2, AKT3 (Homo sapiens, UniProt Q9Y243); assay: Western Blot, degradation of AKT3 protein in H1975-OR cells; set-up: endogenous in cells; host or cells: H1975-OR (osimertinib-resistant H1975); settings: 1000 nM, 24 hours, maximum degradation rate
Method in brief: as §3

[10] = test system: MDA-MB-453; assay: CCK-8 tumor cell proliferation, MDA-MB-453; settings: Homo sapiens, MDA-MB-453 cells, 72 hours
Protocol: as §1

[11] = target: T3, AKT1 (Homo sapiens, UniProt P31749); assay: Western Blot, degradation of AKT1 protein in H1975-OR cells; settings: 1000 nM, 24 hours, maximum degradation rate
T3 construct: AKT1, AKT2, and AKT3 proteins in H1975-OR cells; endogenous in cells; host or cells: H1975-OR (osimertinib-resistant H1975)
Method in brief: as §3

[12] = test system: Bel-7402; assay: CCK-8 tumor cell proliferation, Bel-7402; settings: Homo sapiens, Bel-7402 cells, 72 hours
Protocol: as §1

[13] = test system: HCC827; assay: CCK-8 tumor cell proliferation, HCC827; settings: Homo sapiens, HCC827 cells, 72 hours
Method in brief: as §2

[14] = target: T2, AKT3; assay: Immunoblotting, AKT3 protein level in other tumor cells (H1975, PC-9, H1299, A549); set-up: analyzed the protein levels of AKT1/2/3 using immunoblotting method as described in Embodiment 105; endogenous in cells; host or cells: H1975, PC-9, H1299, A549; settings: H1975, PC-9, H1299 and A549 cells, different concentrations, 24 hours
Protocol: (§4) Conventional Western Blot (immunoblotting) was used for detection, as follows: a certain number of H1975-OR cells were planted on a 96 well plate, adherent cultured in an incubator overnight, and added a certain concentration of compound to act for 24 hours. 1×SDS lysis buffer with protease and phosphatase inhibitors was used to lyse cells. Cell lysates were separated by SDS-PAGE and transferred to PVDF membrane. Then, at room temperature, the PCDF membrane was taken out and immersed in a sealing solution (5% BSA TBS solution containing 0.5% Tween-20) for sealing treatment for 1 hour, and then incubated with a specific primary antibody at 4° C. overnight. The imprints were washed with TBST and incubated with horseradish peroxidase (HRP) labeled secondary antibodies at room temperature for 2 hours. Finally, ECL plus fluorescence detection reagent (Thermo Scientific, Waltham, MA) was used for protein development, and the Amersham Imager 600 system (GE, America) was used for photography. The detection results were processed using ImageJ software to obtain the grayscale value G (Density).
(§5) Tumor cells ([…], and A549) was incubated with different concentrations of compound ZX-HYT-11 for 24 hours, and then analyzed the protein levels of AKT1/2/3 using immunoblotting method as described in Embodiment 105.

[15] = test system: BT-549; assay: CCK-8 tumor cell proliferation, BT-549; settings: Homo sapiens, BT-549 cells, 72 hours
Protocol: as §1

[16] = test system: H1975; assay: CCK-8 tumor cell proliferation, H1975; settings: Homo sapiens, NCI-H1975, H1975 cells, 72 hours
Method in brief: as §2

[17] = test system: AKT1/2; assay: Immunoblotting, AKT1/2 protein levels in other tumor cells (H1975, PC-9, H1299, A549); settings: H1975, PC-9, H1299 and A549 cells, different concentrations, 24 hours
Protocol: as §4, §5

T2 sequence (Q9Y243 whole entry): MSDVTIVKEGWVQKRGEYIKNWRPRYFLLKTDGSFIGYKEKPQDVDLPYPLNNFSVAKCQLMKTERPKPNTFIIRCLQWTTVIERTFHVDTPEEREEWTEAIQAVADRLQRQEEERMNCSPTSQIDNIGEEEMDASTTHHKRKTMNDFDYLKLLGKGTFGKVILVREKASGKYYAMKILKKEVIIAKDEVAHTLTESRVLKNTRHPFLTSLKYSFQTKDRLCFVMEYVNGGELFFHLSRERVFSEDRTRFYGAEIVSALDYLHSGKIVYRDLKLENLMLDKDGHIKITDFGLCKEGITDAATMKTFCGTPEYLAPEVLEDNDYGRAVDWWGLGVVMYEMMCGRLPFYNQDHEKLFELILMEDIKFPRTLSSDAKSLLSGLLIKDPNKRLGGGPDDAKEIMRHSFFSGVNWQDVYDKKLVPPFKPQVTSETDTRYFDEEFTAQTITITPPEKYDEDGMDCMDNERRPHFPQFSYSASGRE
T1 sequence (P31751 whole entry): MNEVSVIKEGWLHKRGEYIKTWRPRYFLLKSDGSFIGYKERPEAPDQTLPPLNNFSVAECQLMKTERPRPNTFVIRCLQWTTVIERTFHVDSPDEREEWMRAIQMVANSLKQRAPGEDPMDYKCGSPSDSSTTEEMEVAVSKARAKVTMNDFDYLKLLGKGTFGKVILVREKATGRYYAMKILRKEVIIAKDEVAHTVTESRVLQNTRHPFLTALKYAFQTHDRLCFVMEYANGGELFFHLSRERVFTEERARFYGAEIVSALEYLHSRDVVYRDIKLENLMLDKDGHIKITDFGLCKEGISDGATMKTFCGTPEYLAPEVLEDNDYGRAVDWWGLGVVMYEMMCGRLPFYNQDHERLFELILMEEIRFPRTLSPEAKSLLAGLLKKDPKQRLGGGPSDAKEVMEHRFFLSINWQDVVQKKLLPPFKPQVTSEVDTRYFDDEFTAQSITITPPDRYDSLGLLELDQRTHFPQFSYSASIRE
T3 sequence (P31749 whole entry): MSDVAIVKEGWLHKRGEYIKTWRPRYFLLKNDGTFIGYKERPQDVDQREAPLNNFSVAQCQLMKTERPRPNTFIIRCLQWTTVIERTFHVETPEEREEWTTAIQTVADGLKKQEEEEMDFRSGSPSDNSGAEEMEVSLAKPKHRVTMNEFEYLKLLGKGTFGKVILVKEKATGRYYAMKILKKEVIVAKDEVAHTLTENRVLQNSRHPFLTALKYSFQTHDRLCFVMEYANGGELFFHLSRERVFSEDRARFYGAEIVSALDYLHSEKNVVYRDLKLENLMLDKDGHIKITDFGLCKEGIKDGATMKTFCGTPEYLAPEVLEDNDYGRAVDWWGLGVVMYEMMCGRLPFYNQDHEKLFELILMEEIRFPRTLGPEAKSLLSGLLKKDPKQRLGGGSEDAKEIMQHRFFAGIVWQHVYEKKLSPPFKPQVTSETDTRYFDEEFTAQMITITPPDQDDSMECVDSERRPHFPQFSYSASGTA

IC50 [1]: > 10 µM | IC50 [2]: 0.27 ± 0.0723 µM | IC50 [3]: 0.686 µM | IC50 [4]: 0.0839 ± 0.0135 µM | Dmax at 1 µM [5]: 15.3% | IC50 [6]: 0.0294 µM | IC50 [7]: 0.0093 ± 0.0004 µM | IC50 [8]: 0.007 ± 0.0006 µM | Dmax at 1 µM [9]: 91.1% | IC50 [10]: > 10 µM | Dmax at 1 µM [11]: 0% | IC50 [12]: > 10 µM | IC50 [13]: 0.0932 ± 0.014 µM | degradation of AKT3 protein [14]: could selectively degrade AKT3 protein | IC50 [15]: > 10 µM | IC50 [16]: 2.39 ± 2 µM
SMILES: COc1cc(N2CCN(CCCCCCCCCCCCNC(=O)CC34CC5CC(CC(C5)C3)C4)CC2)ccc1Nc1ncc2c(C)cc(=O)n(-c3cccc(NC(=O)C4CC4)c3)c2n1 [ZX-HYT-11, N-(3-(2-((4-(4-(12-(2-(((3R, 5R, 7R)-adamantan-1-yl)acetylamino)dodecyl)piperazin-1-yl)-2-methoxyphenyl)amino)-5-methyl-7-oxypyridino [2,3-d]pyrimidin-8 (7H)-yl)phenyl)cyclopropane formamide]
effect on AKT1/2 protein levels [17]: without affecting AKT1/2

Source: US20240132492A1, “PYRIDOPYRIMIDINE-BASED COMPOUND AND APPLICATION THEREOF” (JINAN UNIVERSITY, priority 2021, published 2024)
